This is an account of results in patent publication US12692259B2, “Morpholine-containing and piperazine-containing CXCR4 modulators and uses related thereto” (Emory University, priority 2021, dated 2026).

Structures are written as SMILES. pIC50: −log10 of the molar value.

One data set addresses T1, CYP2D6 (Homo sapiens, UniProt P10635).
T1 construct: purchased Corning; host or cells: insect cells (microsomes)
Briefly: Fluorometric CYP450 inhibition assay, CYP2D6. Format: in vitro ADME. The note with it: read-out: CYP450 IC50 (μM) 2D6. Here is the method:
The CYP450 inhibition assays utilized microsomes from insect cells expressing human recombinant individual cDNA-expressed CYP isoforms 3A4 and 2D6, as well as the fluorogenic probe that produces fluorescent metabolite. Standard inhibitors were co-incubated with fluorogenic substrates and their inhibitory potential (IC50) was determined. Assay conditions in terms of CYP450 protein concentration and time of incubation were standardized, enzyme kinetics parameters of each fluorescent probe substrate were estimated and IC50 values of inhibitors were determined and validated on different days to check reproducibility.
A 100 mM sodium phosphate buffer was prepared and adjusted to pH 7.4. In a separate falcon tube, a 2× enzyme/substrate (E/S) solution was prepared in phosphate buffer. The final concentration of CYP2D6 (CORNING®) and 7-amido-4-methyl coumaric acid (AMMC) was 10 nM and 4 μM, and CYP3A4 (CORNING®) and 7-benzyloxy-4-(trifluoromethyl) coumarin (BFC) was 20 nM and 40 μM, respectively. In a separate falcon tube, a 2×NADPH regenerating system (NRS) was prepared in phosphate buffer.
Both enzymatic assays were conducted in a 96-well microtiter plate (Black, CORNING® COSTAR®) with a final volume of 100 μL. Preparation of the plate began with the addition of 74 μL of the E/S in the first well, and 50 μL to all subsequent wells (from 2-11). […] A 1:3 serial dilution of the test compound was conducted by removing 25 μL from the first well and diluting it with the second and so forth until the tenth row. Final concentrations yielded a range from 200 μM-0.01 μM. Well no. 11 contained no inhibitor, and well no. 12 contained no enzyme. Both were used as controls for background fluorescence. The plate was incubated for 30 min at 37° C. After incubation, the reaction was initiated by the addition of 50 μL of the 2×NRS to each well.
Immediately (within 1 min) the fluorescence was measured using a microplate reader (BIOTEK® Synergy Neo2). […] Data was exported and analyzed using Graph Pad Prism 7. […] The IC50 value was derived after the data was fitted on a 10-point curve using a four-parameter logistic regression model.

Data set [1] can be described thus: Metabolic stability assay, human liver microsomes (HLM). Format: in vitro ADME. The note with it: for half-life at 3 µM: pH 7.4, read-out: Liver Microsomes T1/2 (min) H. An excerpt: Controls were processed and analyzed like the test compounds.
The nature of another data set: PAMPA assay. Format: in vitro ADME. The settings on record: pH 7.4. The method, then: PAMPA assay was performed by BioAssay Systems Services or Bristol Myers Squibb. The method used by BioAssay Systems Services is described below.
Stock solutions in DMSO for all compounds (10 mM) were thawed. The assay was performed in duplicate by following the PAMPA-096 procedure for sample plating. 4% Lecithin in dodecane solution was prepared by resuspending the dried lecithin with 750 μL dodecane. PBS pH 7.4 was used as the diluent. Two sets of plates and equilibrium solutions were incubated for 4 hours at room temperature. Acceptor and equilibrium solutions were analyzed in a UV plate. OD280 nm was used for High Permeability Control (chloramphenicol). OD270 nm was used for Medium Permeability Control (diclofenac) and Low Permeability Control (theophylline). OD254 nm was used for the test compounds.
Data analysis was performed by using the peak absorbance for each respective test compound and Permeability Control to determine the Permeability Rate (Pe) via the following equation: […]
where ODA is the absorbance of Acceptor Solution, ODE is the absorbance of the Equilibrium Standard, and C is determined by the equation below: […]
where Donor Volume (VD) is 0.2 cm^3, Acceptor Volume (VA) is 0.3 cm^3, and Membrane Area (Area) is 0.24 cm^2.
Background: The PAMPA barrier holds no transporters, so it reflects passive diffusion.

For another data set, the target named is CXCR4 (Homo sapiens, UniProt P61073). Briefly: Calcium flux assay (antagonist mode, SDF-1α challenge). The note with it: read-out: CXCR4 Ca^+2 Flux IC50. Also on record: Eurofins or Bristol Myers Squibb (contract assay). Format: cell-based. Here is the method:
Calcium flux assay was performed by Eurofins or Bristol Myers Squibb. The method used by Eurofins is described below.
Compound plate preparation: Vehicle controls and positive controls were prepared to ensure all assays were properly controlled. All wells were prepared using the Eurofins Discovery Services GPCRProfiler® Assay Buffer. The GPCRProfiler® Assay Buffer was a modified Hanks Balanced Salt Solution (HBSS) where HBSS was supplemented to contain 20 mM HEPES and 2.5 mM Probenecid at pH 7.4.
Agonist assay (first addition): Compound(s) supplied were plated in duplicate for each concentration assayed. During the agonist assay, the concentration(s) reflects accommodation for the dilution of compound during the antagonist assay. Please see below for further details. […] The reference agonist for each GPCR was included at Emax (the concentration where the reference agonist elicited a maximal response). The agonist assay was conducted on a FLIPR^TETRA instrument where the test compound(s), vehicle controls, and reference agonist were added to the assay plate after a fluorescence/luminescence baseline was established. The agonist assay was a total of 180 seconds and was used to assess each compound's ability to activate each GPCR assayed. Upon completion of the three minute agonist assay, the assay plate was incubated at 25° C. for a further two minutes. After the incubation period the antagonist assay was initiated.
The antagonist assay was conducted using the same assay plate that was used for the agonist assay. The antagonist assay was conducted on a FLIPR^TETRA instrument where vehicle controls and challenge concentration of reference agonist were added to appropriate wells. The antagonist assay was a total of 180 seconds and was used to assess each compound's ability to inhibit each GPCR assayed.
Data Processing—All plates were subjected to appropriate baseline corrections. Once baseline corrections were processed, maximum fluorescence/luminescence values were exported, and data manipulated to calculate percentage activation and percentage inhibition. […] Data manipulation calculation is as followed: ((Max RLU)−(Baseline Avg.))/((Positive Avg.)−(Baseline Avg.)).
(In general: Calcium assays in cells follow changes in intracellular calcium, usually with a dye or a luminescent sensor.)

T1 sequence (P10635 whole entry): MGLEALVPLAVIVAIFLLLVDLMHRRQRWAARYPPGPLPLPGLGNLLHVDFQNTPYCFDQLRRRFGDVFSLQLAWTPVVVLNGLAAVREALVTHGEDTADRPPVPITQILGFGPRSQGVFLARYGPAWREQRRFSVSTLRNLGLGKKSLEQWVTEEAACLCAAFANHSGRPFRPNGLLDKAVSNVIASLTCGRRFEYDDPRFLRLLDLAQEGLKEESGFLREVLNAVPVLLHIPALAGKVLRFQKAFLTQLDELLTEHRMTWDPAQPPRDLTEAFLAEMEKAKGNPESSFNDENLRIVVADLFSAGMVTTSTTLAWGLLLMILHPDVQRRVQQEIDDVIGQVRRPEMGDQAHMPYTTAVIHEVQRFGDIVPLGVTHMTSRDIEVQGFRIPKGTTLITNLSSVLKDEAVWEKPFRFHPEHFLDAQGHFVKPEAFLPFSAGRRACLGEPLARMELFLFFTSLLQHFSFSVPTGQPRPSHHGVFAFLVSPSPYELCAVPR
Sequence of CXCR4 (P61073 whole entry): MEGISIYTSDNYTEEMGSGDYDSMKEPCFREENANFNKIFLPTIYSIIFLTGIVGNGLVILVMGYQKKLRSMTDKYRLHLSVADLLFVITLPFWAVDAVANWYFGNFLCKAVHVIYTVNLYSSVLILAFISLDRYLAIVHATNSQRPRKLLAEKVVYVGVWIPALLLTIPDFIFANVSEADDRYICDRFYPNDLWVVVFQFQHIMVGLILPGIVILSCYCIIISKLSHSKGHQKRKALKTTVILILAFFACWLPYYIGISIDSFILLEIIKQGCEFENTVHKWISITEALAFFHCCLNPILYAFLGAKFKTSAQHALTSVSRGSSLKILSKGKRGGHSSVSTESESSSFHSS

For the compound `CN(C[C@H]1Cc2c(cccc2N2CC3COC2C3)CN1)[C@H]1CCCc2cccnc21` (stereo in doubt) [EMU-324, (S)—N—(((R)-5-((1S,4R)-2-oxa-6-azabicyclo[2.2.1]heptan-6-yl)-1,2,3,4-tetrahydroisoquinolin-3-yl)methyl)-N-methyl-5,6,7,8-tetrahydroquinolin-8-amine], at CYP2D6, the IC50 (usually the concentration needed to halve the response being measured) is above 20 µM. In addition, the “Liver Microsomes % rem. @ 10 min. H” value in data set [1] is reported as 48.5%. Further, in “PAMPA assay”, the Papp (commonly a coefficient for how fast a substance crosses the barrier) at 4 h turned out to be 106 nm/s. Also, the pIC50 (as a rule, −log10 of the IC50, conventionally taken in molar units) at CXCR4 is 7.51.
Take `CN1CCN(c2cccc3c2C[C@@H](CN(C)[C@H]2CCCc4cccnc42)NC3)C(=O)C1` [EMU-251, 4-methyl-1-((S)-3-((methyl((S)-5,6,7,8-tetrahydroquinolin-8-yl)amino)methyl)-1,2,3,4-tetrahydroisoquinolin-5-yl)piperazin-2-one]: on CYP2D6, the IC50 is above 50 µM. The half-life at 3 µM in data set [1] was 288 min. In the data set “PAMPA assay”, this compound registered a Papp at 4 h of 146 nm/s. Further, the pIC50 at CXCR4 is 6.69.
The corresponding values for `CN(C[C@H]1Cc2c(cccc2N2CCNC(=O)C2)CN1)[C@H]1CCCc2cccnc21` [EMU-254, 4-((R)-3-((methyl((S)-5,6,7,8-tetrahydroquinolin-8-yl)amino)methyl)-1,2,3,4-tetrahydroisoquinolin-5-yl)piperazin-2-one] are 8.1 µM, 37 min, 118 nm/s and 7.28.
The corresponding values for `CN1CCN(c2cccc3c2C[C@H](CN(C)[C@H]2CCCc4cccnc42)NC3)CC1=O` [EMU-255, 1-methyl-4-((R)-3-((methyl((S)-5,6,7,8-tetrahydroquinolin-8-yl)amino)methyl)-1,2,3,4-tetrahydroisoquinolin-5-yl)piperazin-2-one] are 43.1 µM, 16 min, 136 nm/s and 6.65.
The corresponding values for `CCOC(=O)N1CCN(c2cccc3c2C[C@H](CN(C)[C@H]2CCCc4cccnc42)NC3)CC1` [EMU-261, ethyl 4-((R)-3-((methyl((S)-5,6,7,8-tetrahydroquinolin-8-yl)amino)methyl)-1,2,3,4-tetrahydroisoquinolin-5-yl)piperazine-1-carboxylate] are 4.47 µM, 4.9 min, 146 nm/s and 6.00.
As for `CC(=O)N1CCN(c2cccc3c2C[C@H](CN(C)[C@H]2CCCc4cccnc42)NC3)CC1` [EMU-262, 1-(4-((R)-3-((methyl((S)-5,6,7,8-tetrahydroquinolin-8-yl)amino)methyl)-1,2,3,4-tetrahydroisoquinolin-5-yl)piperazin-1-yl)ethan-1-one], the IC50 at CYP2D6 is above 50 µM. Also, the half-life at 3 µM in data set [1] was 16 min. The Papp at 4 h in the data set “PAMPA assay” was determined as 146 nm/s. The pIC50 on CXCR4 was 7.25.
The like results for `CN(C[C@H]1Cc2c(cccc2N2CCN(S(C)(=O)=O)CC2)CN1)[C@H]1CCCc2cccnc21` [EMU-263, (S)—N-methyl-N—(((R)-5-(4-(methylsulfonyl)piperazin-1-yl)-1,2,3,4-tetrahydroisoquinolin-3-yl)methyl)-5,6,7,8-tetrahydroquinolin-8-amine] were, in that order, 34.4 µM, 10 min, 134 nm/s and 6.51.
As for `CN1CCN(c2cccc3c2CC(CN(C)[C@H]2CCOc4cccnc42)NC3)CC1` (stereo partly drawn) [EMU-320, (4S)—N-methyl-N-((5-(4-methylpiperazin-1-yl)-1,2,3,4-tetrahydroisoquinolin-3-yl)methyl)-3,4-dihydro-2H-pyrano[3,2-b]pyridin-4-amine], the “Liver Microsomes % rem. @ 10 min. H” value in data set [1] was determined as 74.7%. This compound came in with a Papp at 4 h in “PAMPA assay” of 167 nm/s. The pIC50 at CXCR4 was 7.89.
Regarding `CN(C[C@H]1Cc2c(cccc2N2CCN3CCOC[C@H]3C2)CN1)[C@H]1CCCc2cccnc21` [EMU-343, (S)—N—(((R)-5-((R)-hexahydropyrazino[2,1-c][1,4]oxazin-8(1H)-yl)-1,2,3,4-tetrahydroisoquinolin-3-yl)methyl)-N-methyl-5,6,7,8-tetrahydroquinolin-8-amine], the IC50 at CYP2D6 was 4.1 µM. Also, the “Liver Microsomes % rem. @ 10 min. H” value in data set [1] is 23.7%. Moreover, on CXCR4, the pIC50 is 8.36.
